Assay results taken from US10004701B2, “Methods and compositions for treating infection” (UNIVERSITY OF ROCHESTER, priority 2012, dated 2018).
Where a name gives a salt, the structure may show the parent alone. Read-outs that look alike come from different tables or passages of the source.

Experiments:
Test in all cases: AK assay 384-well format, Prestwick library screening
E. coli = format: cell-based, Escherichia coli; details: 50 μM final drug concentration; for fold induction at 50 µM: Escherichia coli, 3 h
K. pneumoniae = format: cell-based, Klebsiella pneumoniae; details: 50 μM final drug concentration; for fold induction at 50 µM: Klebsiella pneumoniae, 3 h
[1] = test system: S. aureus strain USA300-0114; format: cell-based, Staphylococcus aureus; details: 50 μM final drug concentration; for fold induction at 50 µM: Staphylococcus aureus, USA300, 3 h
E. faecium = format: cell-based, Enterococcus faecium; details: 50 μM final drug concentration; for fold induction at 50 µM: Enterococcus faecium, 3 h
P. aeruginosa = format: cell-based, Pseudomonas aeruginosa; details: 50 μM final drug concentration; for fold induction at 50 µM: Pseudomonas aeruginosa, 3 h
[2] = test system: A. baumannii strain 98-37-09; format: cell-based, Acinetobacter baumannii; details: 50 μM final drug concentration; for fold induction at 50 µM: Acinetobacter baumannii, 983709, 3 h
E. cloacae = format: cell-based, Enterobacter cloacae; details: 50 μM final drug concentration; for fold induction at 50 µM: Enterobacter cloacae, 3 h
[3] = planktonic E. coli, cutoff for positive-scoring molecules 3-fold increase, read-out: AK-based Prestwick Library Screening Results, E. coli (increase in extracellular AK activity)
[4] = planktonic K. pneumoniae, cutoff for positive-scoring molecules 3-fold increase, read-out: AK-based Prestwick Library Screening Results, K. pneumoniae (increase in extracellular AK activity)
[5] = planktonic S. aureus, cutoff for positive-scoring molecules 3-fold increase, read-out: AK-based Prestwick Library Screening Results, S. aureus (increase in extracellular AK activity)
[6] = planktonic E. faecium, cutoff for positive-scoring molecules 3-fold increase, read-out: AK-based Prestwick Library Screening Results, E. faecium (increase in extracellular AK activity)
[7] = planktonic P. aeruginosa, cutoff for positive-scoring molecules 3-fold increase, read-out: AK-based Prestwick Library Screening Results, P. aeruginosa (increase in extracellular AK activity)
[8] = planktonic A. baumannii, cutoff for positive-scoring molecules 3-fold increase, read-out: AK-based Prestwick Library Screening Results, A. baumannii (increase in extracellular AK activity)
[9] = planktonic E. cloacae, cutoff for positive-scoring molecules 3-fold increase, read-out: AK-based Prestwick Library Screening Results, E. cloacae (increase in extracellular AK activity)
[10] = 384-well format, cutoff for positive-scoring molecules 3-fold increase
[11] = 384-well format, cutoff for positive-scoring molecules 3-fold increase, read-out: AK-based Prestwick Library Screening Results, E. coli (increase in extracellular AK activity)
[12] = 384-well format, cutoff for positive-scoring molecules 3-fold increase, read-out: AK-based Prestwick Library Screening Results, K. pneumoniae (increase in extracellular AK activity)
[13] = 384-well format, cutoff for positive-scoring molecules 3-fold increase, read-out: AK-based Prestwick Library Screening Results, S. aureus (increase in extracellular AK activity)
[14] = 384-well format, cutoff for positive-scoring molecules 3-fold increase, read-out: AK-based Prestwick Library Screening Results, E. faecium (increase in extracellular AK activity)
[15] = 384-well format, cutoff for positive-scoring molecules 3-fold increase, read-out: AK-based Prestwick Library Screening Results, P. aeruginosa (increase in extracellular AK activity)
[16] = 384-well format, cutoff for positive-scoring molecules 3-fold increase, read-out: AK-based Prestwick Library Screening Results, A. baumannii (increase in extracellular AK activity)
[17] = 384-well format, cutoff for positive-scoring molecules 3-fold increase, read-out: AK-based Prestwick Library Screening Results, E. cloacae (increase in extracellular AK activity)

Work on `CN1C[C@H](CNC(=O)OCc2ccccc2)C[C@@H]2c3cccc4c3c(cn4C)C[C@H]21` [Metergoline] yielded a fold induction at 50 µM (E. coli; [3]) of 1.2, a fold induction at 50 µM (K. pneumoniae; [4]) of 1 and a fold induction at 50 µM [1, 5] of 1.1. For the same compound, the fold induction at 50 µM (E. faecium; [6]) was 1, the fold induction at 50 µM (P. aeruginosa; [7]) was 1.1 and the fold induction at 50 µM [2, 8] was 1.3. It also gave a fold induction at 50 µM (E. cloacae; [9]) of 1.3.

`C[C@H]1CC[C@]2(NC1)O[C@H]1C[C@H]3[C@@H]4CC[C@H]5C[C@@H](O)CC[C@]5(C)[C@H]4CC[C@]3(C)[C@H]1[C@@H]2C` [Tomatidine] showed a fold induction at 50 µM (E. coli; planktonic E. coli, […], read-out: AK-based Prestwick Library Screening Results, E. coli (increase in extracellular AK activity)) of 0.7, a fold induction at 50 µM (K. pneumoniae; planktonic K. pneumoniae, […], read-out: AK-based Prestwick Library Screening Results, K. pneumoniae (increase in extracellular AK activity)) of 0.6 and a fold induction at 50 µM ([1]; planktonic S. aureus, […], read-out: AK-based Prestwick Library Screening Results, S. aureus (increase in extracellular AK activity)) of 0.5. For the same compound, the fold induction at 50 µM (E. faecium; planktonic E. faecium, […], read-out: AK-based Prestwick Library Screening Results, E. faecium (increase in extracellular AK activity)) was 1.2, the fold induction at 50 µM (P. aeruginosa; planktonic P. aeruginosa, […], read-out: AK-based Prestwick Library Screening Results, P. aeruginosa (increase in extracellular AK activity)) was 0.7 and the fold induction at 50 µM ([2]; planktonic A. baumannii, […], read-out: AK-based Prestwick Library Screening Results, A. baumannii (increase in extracellular AK activity)) was 0.7. The fold induction at 50 µM (E. cloacae; planktonic E. cloacae, […], read-out: AK-based Prestwick Library Screening Results, E. cloacae (increase in extracellular AK activity)) was 1.

`COCC(=O)Nc1c(I)c(C(=O)NCC(O)CO)c(I)c(C(=O)N(C)CC(O)CO)c1I` (stereo not drawn) [Iopromide] showed a fold induction at 50 µM (E. coli; cutoff for positive-scoring molecules 3-fold increase, read-out: AK-based Prestwick Library Screening Results, E. coli (fold increase in extracellular AK activity)) of 1.2, a fold induction at 50 µM (K. pneumoniae; cutoff for positive-scoring molecules 3-fold increase, read-out: AK-based Prestwick Library Screening Results, K. pneumoniae (fold increase in extracellular AK activity)) of 1.1 and a fold induction at 50 µM ([1]; cutoff for positive-scoring molecules 3-fold increase, read-out: AK-based Prestwick Library Screening Results, S. aureus (fold increase in extracellular AK activity)) of 1.3. The fold induction at 50 µM (E. faecium; cutoff for positive-scoring molecules 3-fold increase, read-out: AK-based Prestwick Library Screening Results, E. faecium (fold increase in extracellular AK activity)) was 1, the fold induction at 50 µM (P. aeruginosa; cutoff for positive-scoring molecules 3-fold increase, read-out: AK-based Prestwick Library Screening Results, P. aeruginosa (fold increase in extracellular AK activity)) was 1.2 and the fold induction at 50 µM ([2]; cutoff for positive-scoring molecules 3-fold increase, read-out: AK-based Prestwick Library Screening Results, A. baumannii (fold increase in extracellular AK activity)) was 1.1. The fold induction at 50 µM (E. cloacae; cutoff for positive-scoring molecules 3-fold increase, read-out: AK-based Prestwick Library Screening Results, E. cloacae (fold increase in extracellular AK activity)) was 1.4.

In the case of `C[C@H]1C[C@@H]2[C@H]([C@@H](O)C[C@@]3(C)[C@H]2CC[C@]3(O)C(=O)CO)[C@@]2(C)C=CC(=O)C=C12` [Methylprednisolone, 6-alpha], the “AK-based Prestwick Library Screening Results, E. coli (increase in extracellular AK activity)” value (E. coli; [10]) is reported as 0.8, the “AK-based Prestwick Library Screening Results, K. pneumoniae (increase in extracellular AK activity)” value (K. pneumoniae; [10]) is reported as 0.7 and the “AK-based Prestwick Library Screening Results, S. aureus (increase in extracellular AK activity)” value [1, 10] is reported as 0.8. For the same compound, the “AK-based Prestwick Library Screening Results, E. faecium (increase in extracellular AK activity)” value (E. faecium; [10]) was 1.0, the “AK-based Prestwick Library Screening Results, P. aeruginosa (increase in extracellular AK activity)” value (P. aeruginosa; [10]) was 0.9 and the “AK-based Prestwick Library Screening Results, A. baumannii (increase in extracellular AK activity)” value [2, 10] was 0.9. For the same compound, the “AK-based Prestwick Library Screening Results, E. cloacae (increase in extracellular AK activity)” value (E. cloacae; [10]) was 1.3.

`O=C(CCCN1CCC(O)(c2ccc(Cl)cc2)CC1)c1ccc(F)cc1` [Haloperidol] gave a fold induction at 50 µM (E. coli; [11]) of 0.9, a fold induction at 50 µM (K. pneumoniae; [12]) of 0.6 and a fold induction at 50 µM [1, 13] of 0.8. It also gave a fold induction at 50 µM (E. faecium; [14]) of 0.9, a fold induction at 50 µM (P. aeruginosa; [15]) of 0.9 and a fold induction at 50 µM [2, 16] of 1. For the same compound, the fold induction at 50 µM (E. cloacae; [17]) was 1.1.

`CCN1CCN(C(=O)N[C@@H](C(=O)N[C@@H]2C(=O)N3[C@@H]2SC(C)(C)[C@@H]3C(=O)O)c2ccccc2)C(=O)C1=O` [Piperacillin sodium salt] gave a fold induction at 50 µM (E. coli; planktonic, cutoff for positive-scoring molecules 3-fold increase, read-out: AK-based Prestwick Library Screening Results, E. coli (fold increase in extracellular AK activity)) of 12.6, a fold induction at 50 µM (K. pneumoniae; planktonic, cutoff for positive-scoring molecules 3-fold increase, read-out: AK-based Prestwick Library Screening Results, K. pneumoniae (fold increase in extracellular AK activity)) of 2.3 and a fold induction at 50 µM ([1]; planktonic, cutoff for positive-scoring molecules 3-fold increase, read-out: AK-based Prestwick Library Screening Results, S. aureus (fold increase in extracellular AK activity)) of 0.4. It also gave a fold induction at 50 µM (E. faecium; planktonic, cutoff for positive-scoring molecules 3-fold increase, read-out: AK-based Prestwick Library Screening Results, E. faecium (fold increase in extracellular AK activity)) of 0.9, a fold induction at 50 µM (P. aeruginosa; planktonic, cutoff for positive-scoring molecules 3-fold increase, read-out: AK-based Prestwick Library Screening Results, P. aeruginosa (fold increase in extracellular AK activity)) of 8.7 and a fold induction at 50 µM ([2]; planktonic, cutoff for positive-scoring molecules 3-fold increase, read-out: AK-based Prestwick Library Screening Results, A. baumannii (fold increase in extracellular AK activity)) of 3.3. It also gave a fold induction at 50 µM (E. cloacae; planktonic, cutoff for positive-scoring molecules 3-fold increase, read-out: AK-based Prestwick Library Screening Results, E. cloacae (fold increase in extracellular AK activity)) of 1.3.

`CN1CCc2cc3c(cc2C1O)OCO3` (stereo not drawn) [Hydrastinine hydrochloride] gave a fold induction at 50 µM (E. coli; [11]) of 1, a fold induction at 50 µM (K. pneumoniae; [12]) of 0.8 and a fold induction at 50 µM [1, 13] of 0.7. The fold induction at 50 µM (E. faecium; [14]) was 0.9, the fold induction at 50 µM (P. aeruginosa; [15]) was 0.9 and the fold induction at 50 µM [2, 16] was 0.9. It also gave a fold induction at 50 µM (E. cloacae; [17]) of 1.2.

`Nc1nc(N)c2nc(-c3ccccc3)c(N)nc2n1` [Triamterene] was tested, and the fold induction at 50 µM (E. coli; [11]) was 0.6, the fold induction at 50 µM (K. pneumoniae; [12]) was 0.5 and the fold induction at 50 µM [1, 13] was 0.6. For the same compound, the fold induction at 50 µM (E. faecium; [14]) was 0.7, the fold induction at 50 µM (P. aeruginosa; [15]) was 0.6 and the fold induction at 50 µM [2, 16] was 1.1. It also gave a fold induction at 50 µM (E. cloacae; [17]) of 1.2.

Compound `O=C(/C=C/c1ccc(O)c(O)c1)O[C@@H]1C[C@](O)(C(=O)O)C[C@@H](O)[C@H]1O` [Chlorogenic acid] has a fold induction at 50 µM (E. coli; [3]) of 0.8, a fold induction at 50 µM (K. pneumoniae; [4]) of 0.7 and a fold induction at 50 µM [1, 5] of 0.5. For the same compound, the fold induction at 50 µM (E. faecium; [6]) was 0.9, the fold induction at 50 µM (P. aeruginosa; [7]) was 0.7 and the fold induction at 50 µM [2, 8] was 0.8. For the same compound, the fold induction at 50 µM (E. cloacae; [9]) was 0.8.
